Entries after “also recorded” stand apart in the source; their conditions may differ.
Columns and labels:
IL-1β = IL-1β secretion in hippocampus after orthopedic surgery (Western blot); assay type: in vivo, mice
Procedure: (§1) Representative Western Blot images in adult (12 weeks-old) and aged (20 months-old) C57BL/6 mice for NLRP3 (FIG. 18A), Caspase-1 (FIG. 18C), and IL1β (FIG. 18E) (three key components of the inflammasome complex) and quantification. […] Data are presented as mean±SD. […] One-way ANOVA with Multiple Comparisons.
(§2) Male C57BL/6 mice received ANXA1sp (1 mg/kg) 30 min before surgery. Representative blots of Caspase-1 activation and IL1β secretion. […] Data are presented as mean±SD. N=4-5; *P<0.05, **P<0.01, ***P<0.001. Two-way ANOVA with Multiple Comparisons.

MPO = assay: Plasma/systemic MPO levels after orthopedic surgery; assay type: in vivo, mice
Source text: (§3) Systemic cytokines, including IL-6, are found elevated in patients developing delirium and POCD and may serve as potential biomarkers. […] N=4-5 (adult), N=1-5 (aged); **P<0.01. Two-way ANOVA with Multiple Comparisons.

IL-6 = assay: Systemic IL-6 after orthopedic surgery; assay type: in vivo; details: mice after orthopedic surgery
Source text: as §3

[1] = tested on: hippocampal ATP production; assay: Hippocampal ATP production (ELISA) after orthopedic surgery; assay type: in vivo; details: mice (13 weeks) after orthopedic surgery
Procedure: (§4) Male C57BL/6 mice (13 weeks) were subjected to orthopedic surgery. Naïve animals (no surgery at 0 hour) were used as baseline-control. At 3, 6, and 24 hours of post-surgery, the total OXPHOS in hippocampus was determined by Western blot (FIG. 23A) and (FIG. 23B). Time-dependent increased hippocampal ATP production were determined by ELISA (FIG. 23C). […] Data are presented as mean±SD. N=4; **P<0.01, ***P<0.001. One-way ANOVA with Multiple Comparisons.

NLRP3 inflammasome = assay: NLRP3 expression/inflammasome activation in hippocampus after orthopedic surgery (Western blot); assay type: in vivo, mice; details: for NLRP3 activation: ANXA1sp 1 mg/kg 30 min before surgery
Procedure: as §1
Male C57BL/6 mice received ANXA1sp (1 mg/kg) 30 min before surgery. […] Data are presented as mean±SD. […] Two-way ANOVA with Multiple Comparisons.

memory function = assay: "What-when-where" task of object recognition memory after orthopedic surgery; assay type: in vivo, mice
Source text: After orthopedic surgery mice have reduced preferences for the replacement of objects (what), and for the original location of the displaced object (where); but they show a […] preference the order of presentation (when). […] Data are presented as mean±SD. N=10. *P<0.05 and **P<0.01 vs. surgery+vehicle using MANOVA. (FIG. 17).

[2] = tested on: cerebral microglia activation; assay: Microglia activation after orthopedic surgery (F4/80 immunostaining, stereological analysis); assay type: in vivo; details: mice after orthopedic surgery, ANXA1sp 1 mg/kg 1 hr before surgery, 24 hr post-surgery, F4/80 positive cells, vs untreated animals
Procedure: Male C57BL/6 mice (12 weeks) were subjected to orthopedic surgery and treated with ANXA1sp (1 mg/kg) 1 hr before surgery. At 24 hr of post-surgery, brain levels of microglia activation was determined by immunostaining with a biomarker F4/80. Stereological analysis of F4/80 positive cells was shown in the bar graph. N=5 (Naïve), 10 (Surgery), and 4 (ANXA1sp). Data are presented as mean+SD. **P<0.01 vs. Naïve; #P<0.05 vs. Surgery. One-way ANOVA with Multiple Comparisons. (FIG. 13).

citrate synthetase (CS) = assay: Hippocampus citrate synthetase (CS, Western blot) after orthopedic surgery; assay type: in vivo; details: mice (13 weeks) after orthopedic surgery
Procedure: Male C57BL/6 mice (13 weeks) were subjected to orthopedic surgery while naïve animals were as baseline-control. At 3, 6, and 24 hours of post-surgery, the hippocampus CS was determined by Western blot (FIG. 24A) and (FIG. 24B). […] Data are presented as mean±SD. N=4; **P<0.01, ***P<0.001, ****P<0.0001. One-way ANOVA with Multiple Comparisons.

SIRT3 = assay: Hippocampal mitochondrial SIRT3 expression after orthopedic surgery; assay type: in vivo; details: mice after orthopedic surgery, time-dependent
Caspase-1 = Caspase-1 activation in hippocampus after orthopedic surgery (Western blot); assay type: in vivo, mice
Procedure: as §1, §2

ANXA1 = assay: Hippocampal/brain ANXA1 levels after orthopedic surgery; assay type: in vivo, mice
Source text: Surgery reduced levels of endogenous ANXA1 in the brain at 24 hr (FIG. 25A, FIG. 25B for quantification). […] N=3-4; **P<0.01, ***P<0.001. One-way ANOVA with Multiple Comparisons.

[3] = tested on: OXPHOS mitochondrial electron transport chain complexes; assay: Hippocampal total OXPHOS (Western blot) after orthopedic surgery; assay type: in vivo; details: mice (13 weeks) after orthopedic surgery
Procedure: as §4

[4] = brain (hippocampus) of mice after orthopedic surgery

## Ac-Gln-Ala-Trp [ANXA1sp]
IL-1β; adult mice after surgery, ANXA1sp 1 mg/kg 30 min before surgery
  secreted IL1β: no significance
IL-1β; [4]
  activation of IL-1β: significantly inhibited
MPO; mice after orthopedic surgery, time-dependent
  plasma levels of meloperoxidase (MPO): reduced; also recorded: significantly decreased
MPO; mice, 24 hr after orthopedic surgery, listed as ANXA-1sp
  systemic levels of MPO: reduced
IL-6
  systemic IL-6: significantly reduced
IL-6; listed as ANXA-1sp
  systemic IL-6: reduced
[1]
  hippocampal ATP production: attenuated
NLRP3 inflammasome; adult and aged mice, 24 hr after surgery
  NLRP3 activation: significantly reduced
NLRP3 inflammasome; aged mice, 6 hr after surgery
  NLRP3 activation: significantly reduced
NLRP3 inflammasome; [4]
  NLRP3 expression or NLRP3 inflammasome activation: inhibits; also recorded: significant inhibition; also recorded: reduces
Memory function; mice after orthopedic surgery, vs surgery+vehicle
  memory deficits (what-when-where object recognition preference scores): significantly improves
Memory function; surgery+ANXA1sp mice, vs original anchor object and two most recently seen objects
  exploration of the displaced/replaced object: greater exploration
[2]
  cerebral microglia activation: significantly attenuated
Citrate synthetase (CS)
  numbers of CS (citrate synthetase, biomarker of numbers of mitochondria): significantly increased
SIRT3
  hippocampal mitochondrial SIRT3 expression/activation: significantly increases/activates; also recorded: significantly higher expression
Caspase-1; adult and aged mice after surgery, ANXA1sp 1 mg/kg 30 min before surgery
  levels of Caspase-1: significantly reduced
Caspase-1; [4]
  activation of caspase-1: significantly inhibited
ANXA1; 24 hr after surgery, 1 mg/kg ANXA1sp
  levels of ANXA-1 in the brain: significantly increase
ANXA1; mice after orthopedic surgery
  hippocampal ANXA1 levels: significantly increased
[3]
  hippocampal total OXPHOS, particularly complex IV: significantly regulated

Reference: patent US20180153952A1, “COMPOSITIONS AND METHODS FOR TREATING POST OPERATIVE COGNITIVE DYSFUNCTION AND NEUROIN[…] ANNEXIN A1 (ANXA1) PEPTIDES” (Duke University, priority 2016, published 2018)
